{"source": "ChEMBL document CHEMBL1938266", "about": "“A three-step protocol for lead optimization: quick identification of key conformational features and functional groups in the SAR studies of non-ATP competitive MK2 (MAPKAPK2) inhibitors” (Bioorg Med Chem Lett, 2012)", "key": {"[1]": {"biological_target": "T1, MAP kinase-activated protein kinase 2 (Homo sapiens, UniProt P49137)", "T1 sequence (P49137 whole entry)": "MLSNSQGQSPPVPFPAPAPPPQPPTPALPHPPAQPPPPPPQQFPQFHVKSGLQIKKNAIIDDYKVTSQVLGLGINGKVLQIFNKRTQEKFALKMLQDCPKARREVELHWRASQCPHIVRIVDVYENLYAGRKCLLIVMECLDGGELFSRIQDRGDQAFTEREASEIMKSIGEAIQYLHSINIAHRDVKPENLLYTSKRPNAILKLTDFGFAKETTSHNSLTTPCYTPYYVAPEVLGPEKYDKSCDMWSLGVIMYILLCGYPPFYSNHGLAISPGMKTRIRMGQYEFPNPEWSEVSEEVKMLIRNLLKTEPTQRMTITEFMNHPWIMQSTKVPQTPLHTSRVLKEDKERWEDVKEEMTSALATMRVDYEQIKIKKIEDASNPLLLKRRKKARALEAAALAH", "assay": "Inhibition of human MK2", "details": "for pIC50: read-out: IC50; call rule not given here"}, "THP-1": {"system": "THP-1", "assay": "Inhibition of LPS-stimulated TNFalpha production in human THP1 cells by ELISA", "type": "functional, cell-based"}, "[2]": {"biological_target": "T1, MAP kinase-activated protein kinase 2", "assay": "Inhibition of MK2-mediated HSP27 phosphorylation by cell-based assay"}}, "note": "pEC50, pIC50: −log10 of the molar value."}
{"smiles": "N#Cc1ccc(-c2ccc(C(=O)N(Cc3cccc(-c4ccncc4)c3)c3ccc(N4CCNCC4)cc3)o2)cc1", "values": [{"measurement": "pIC50", "setting": "[1]", "value": 6.96}]}
{"smiles": "CN1CCN(CCCN(Cc2ccccn2)C(=O)c2ccc(-c3ccc(C#N)cc3)o2)CC1", "values": [{"measurement": "pIC50", "setting": "[1]", "value": 5.00}]}
{"smiles": "N#Cc1ccc(-c2ccc(C(=O)N(Cc3ccc(-c4ccncc4)cc3)c3ccc(N4CCNCC4)cc3)o2)cc1", "values": [{"measurement": "pIC50", "setting": "[1]", "value": 6.89}]}
{"smiles": "N#Cc1ccc(-c2ccc(C(=O)N(Cc3ccccc3-c3ccc(C#N)cc3)c3ccc(N4CCNCC4)cc3)o2)cc1", "values": [{"measurement": "pIC50", "setting": "[1]", "value": 8.10}, {"measurement": "pEC50", "setting": "THP-1", "value": 5.53}]}
{"smiles": "Cc1cccc(CN(C(=O)c2ccc(-c3ccc(Cl)cc3)o2)c2ccccc2N2CCNCC2)n1", "values": [{"measurement": "IC50", "setting": "[1]", "value": "Not Active"}]}
{"smiles": "N#Cc1ccc(-c2ccc(C(=O)N(Cc3cccc(-c4ccccc4F)c3)c3ccc(N4CCNCC4)cc3)o2)cc1", "values": [{"measurement": "pIC50", "setting": "[1]", "value": 5.84}]}
{"smiles": "Cc1cccc(C)c1-c1ccccc1CN(C(=O)c1ccc(-c2ccc(C#N)cc2)o1)c1ccc(N2CCNCC2)cc1", "values": [{"measurement": "pIC50", "setting": "[1]", "value": 6.59}]}
{"smiles": "N#Cc1ccc(-c2ccc(C(=O)N(Cc3ccccc3-c3cncnc3)c3ccc(N4CCNCC4)cc3)o2)cc1", "values": [{"measurement": "pIC50", "setting": "[1]", "value": 7.57}, {"measurement": "pEC50", "setting": "THP-1", "value": 6.06}]}
{"smiles": "COc1ccc(-c2ccccc2CN(C(=O)c2ccc(-c3ccc(C#N)cc3)o2)c2ccc(N3CCNCC3)cc2)cn1", "values": [{"measurement": "pIC50", "setting": "[1]", "value": 7.37}]}
{"smiles": "COc1cc(-c2ccccc2CN(C(=O)c2ccc(-c3ccc(C#N)cc3)o2)c2ccc(N3CCNCC3)cc2)ccn1", "values": [{"measurement": "pIC50", "setting": "[1]", "value": 7.62}]}
{"smiles": "N#Cc1ccc(-c2ccc(C(=O)N(Cc3cccnc3-c3cncnc3)c3ccc(N4CCNCC4)cc3)o2)cc1", "values": [{"measurement": "pIC50", "setting": "[1]", "value": 7.00}]}
{"smiles": "COc1cncc(-c2ccccc2CN(C(=O)c2ccc(-c3ccc(C#N)cc3)o2)c2ccc(N3CCNCC3)cc2)c1", "values": [{"measurement": "pIC50", "setting": "[1]", "value": 7.70}, {"measurement": "pEC50", "setting": "THP-1", "value": 5.74}]}
{"smiles": "N#Cc1ccc(-c2ccc(C(=O)N(Cc3ccccn3)C3CCNCC3)o2)cc1", "values": [{"measurement": "pIC50", "setting": "[1]", "value": 5.00}]}
{"smiles": "O=C(c1ccc(-c2ccc(Cl)cc2)o1)N(Cc1ccccn1)C1CCC(N2CCNCC2)CC1", "note": "(centres undefined)", "values": [{"measurement": "pIC50", "setting": "[1]", "value": 5.32}]}
{"smiles": "N#Cc1ccc(-c2ccc(C(=O)N(Cc3ccccc3-c3ccncc3)c3ccc(N4CCNCC4)cc3)o2)cc1", "values": [{"measurement": "pIC50", "setting": "[1]", "value": 7.92}, {"measurement": "pEC50", "setting": "THP-1", "value": 5.08}]}
{"smiles": "N#Cc1ccc(-c2ccc(C(=O)N(Cc3ccccc3-c3ccccc3)c3ccc(N4CCNCC4)cc3)o2)cn1", "values": [{"measurement": "pIC50", "setting": "[1]", "value": 6.59}]}
{"smiles": "N#Cc1ccc(-c2ccc(C(=O)N(Cc3ccccc3-c3ccccc3F)c3ccc(N4CCNCC4)cc3)o2)cc1", "values": [{"measurement": "pIC50", "setting": "[1]", "value": 7.92}]}
{"smiles": "N#Cc1ccc(-c2ccc(C(=O)N(Cc3ccccc3-c3cccnc3)c3ccc(N4CCNCC4)cc3)o2)cn1", "values": [{"measurement": "pIC50", "setting": "[1]", "value": 6.75}]}
{"smiles": "COc1ncc(-c2ccccc2CN(C(=O)c2ccc(-c3ccc(C#N)cc3)o2)c2ccc(N3CCNCC3)cc2)cn1", "values": [{"measurement": "pIC50", "setting": "[1]", "value": 7.28}]}
{"smiles": "Cc1noc(C)c1-c1ccccc1CN(C(=O)c1ccc(-c2ccc(C#N)cc2)o1)c1ccc(N2CCNCC2)cc1", "values": [{"measurement": "pIC50", "setting": "[1]", "value": 7.68}, {"measurement": "pEC50", "setting": "THP-1", "value": 5.75}]}
{"smiles": "N#Cc1ccc(-c2ccc(C(=O)N(Cc3ccccc3-c3ccccn3)c3ccc(N4CCNCC4)cc3)o2)cc1", "values": [{"measurement": "pIC50", "setting": "[1]", "value": 7.85}, {"measurement": "pEC50", "setting": "THP-1", "value": 5.60}]}
{"smiles": "Cc1cccc(CN(C(=O)c2ccc(-c3ccc(Cl)cc3)o2)c2cccc(N3CCNCC3)c2)n1", "values": [{"measurement": "IC50", "setting": "[1]", "value": "Not Active"}]}
{"smiles": "N#Cc1ccc(-c2ccc(C(=O)N(Cc3ccccc3-c3cccc(C#N)c3)c3ccc(N4CCNCC4)cc3)o2)cc1", "values": [{"measurement": "pIC50", "setting": "[1]", "value": 7.72}, {"measurement": "pEC50", "setting": "THP-1", "value": 5.80}]}
{"smiles": "O=C(c1ccc(-c2ccc(Cl)cc2)o1)N(Cc1ccccn1)c1ccc(N2CCNCC2)cc1", "values": [{"measurement": "pIC50", "setting": "[1]", "value": 6.96}, {"measurement": "pEC50", "setting": "THP-1", "value": 5.30}, {"measurement": "pEC50", "setting": "[2]", "value": 6.46}]}
{"smiles": "N#Cc1ccc(-c2ccc(C(=O)N(Cc3ccccn3)c3ccc(N4CCNCC4)cc3)o2)cc1", "values": [{"measurement": "pIC50", "setting": "[1]", "value": 6.94}]}
{"smiles": "COc1ccccc1-c1ccccc1CN(C(=O)c1ccc(-c2ccc(C#N)cc2)o1)c1ccc(N2CCNCC2)cc1", "values": [{"measurement": "pIC50", "setting": "[1]", "value": 7.70}, {"measurement": "pEC50", "setting": "THP-1", "value": 5.71}]}
{"smiles": "N#Cc1ccc(-c2ccc(C(=O)N(Cc3ccc(-c4ccccc4)cc3)c3ccc(N4CCNCC4)cc3)o2)cc1", "values": [{"measurement": "pIC50", "setting": "[1]", "value": 7.39}, {"measurement": "pEC50", "setting": "THP-1", "value": 5.17}]}
{"smiles": "N#Cc1ccc(-c2ccc(C(=O)N(Cc3ccccc3-c3cccnc3)c3ccc(N4CCNCC4)cc3)o2)cc1", "values": [{"measurement": "pIC50", "setting": "[1]", "value": 8.05}, {"measurement": "pEC50", "setting": "THP-1", "value": 5.91}]}
{"smiles": "COc1ccccc1-c1ncccc1CN(C(=O)c1ccc(-c2ccc(C#N)cc2)o1)c1ccc(N2CCNCC2)cc1", "values": [{"measurement": "pIC50", "setting": "[1]", "value": 7.92}, {"measurement": "pEC50", "setting": "THP-1", "value": 6.13}]}
{"smiles": "COc1ccncc1-c1ncccc1CN(C(=O)c1ccc(-c2ccc(C#N)cc2)o1)c1ccc(N2CCNCC2)cc1", "values": [{"measurement": "pIC50", "setting": "[1]", "value": 8.05}, {"measurement": "pEC50", "setting": "THP-1", "value": 5.80}]}
{"smiles": "COc1cccc(-c2ccccc2CN(C(=O)c2ccc(-c3ccc(C#N)cc3)o2)c2ccc(N3CCNCC3)cc2)c1", "values": [{"measurement": "pIC50", "setting": "[1]", "value": 7.92}]}
{"smiles": "Cc1ccccc1-c1ccccc1CN(C(=O)c1ccc(-c2ccc(C#N)cc2)o1)c1ccc(N2CCNCC2)cc1", "values": [{"measurement": "pIC50", "setting": "[1]", "value": 6.55}]}
{"smiles": "N#Cc1ccc(-c2ccc(C(=O)N(Cc3ccc(-c4ccccc4F)cc3)c3ccc(N4CCNCC4)cc3)o2)cc1", "values": [{"measurement": "pIC50", "setting": "[1]", "value": 5.72}]}
{"smiles": "N#Cc1ccc(-c2ccc(C(=O)N(Cc3ccccc3-c3ccccc3)c3ccc(N4CCNCC4)cc3)o2)cc1", "values": [{"measurement": "pIC50", "setting": "[1]", "value": 8.05}, {"measurement": "pEC50", "setting": "THP-1", "value": 5.46}]}
{"smiles": "COc1ccncc1-c1ccccc1CN(C(=O)c1ccc(-c2ccc(C#N)cc2)o1)c1ccc(N2CCNCC2)cc1", "values": [{"measurement": "pIC50", "setting": "[1]", "value": 8.10}, {"measurement": "pEC50", "setting": "THP-1", "value": 6.51}]}
{"smiles": "N#Cc1ccc(-c2ccc(C(=O)N(Cc3cccc(-c4ccccc4)c3)c3ccc(N4CCNCC4)cc3)o2)cc1", "values": [{"measurement": "pIC50", "setting": "[1]", "value": 7.15}, {"measurement": "pEC50", "setting": "THP-1", "value": 4.55}]}
{"smiles": "Cc1cccc(CN(C(=O)c2ccc(-c3ccc(C#N)cc3)o2)c2ccc(N3CCNCC3)cc2)n1", "values": [{"measurement": "pIC50", "setting": "[1]", "value": 7.10}]}
